The subject of data set [1] is ECV-304. The data set can be described thus: Membrane permeabilization effect on lysosome of human ECV304 cells up to 48 uM after 1 hr by N-Acetylglucosaminidase release assay. Format: functional, cell-based.
Data set [2] deals with ECV-304. Description: Membrane permeabilization effect on human ECV304 cells at 3 to 24 uM measured every 15 secs for 3 hrs by real time impedance-based plate reader analysis. Format: functional, cell-based.
Data set [3] has as its system ECV-304. The data set can be described thus: Membrane permeabilization effect on human ECV304 cells assessed as normalized cell index at 12 uM measured every 15 secs for 3 hrs by real time impedance-based plate reader analysis relative to control. Format: functional.
A short description of data set [4]: Hemolytic activity against human RBC at 1.5 to 48 uM after 30 mins. Particulars: erythrocyte, 0.5 h. It is filed as ADME, cell-based.
In data set [5] the test system is ECV-304. The data set can be described thus: Membrane permeabilization effect on human ECV304 cells assessed as propidium iodide uptake up to 48 uM after 1 hr by FACS flow cytometric analysis. It is filed as functional, cell-based. (A flow cytometer gives signals particle by particle.)
The test system of data set [6] is ECV-304. Description: Membrane permeabilization effect on human ECV304 cells assessed as normalized cell index at 24 uM measured every 15 secs for 3 hrs by real time impedance-based plate reader analysis relative to control relative to control. Format: functional.
Data set [7] concerns ECV-304. The data set can be described thus: Membrane permeabilization effect on lysosome of human ECV304 cells assessed as induction of membrane lysis up to 6 uM after 1 hr by N-Acetylglucosaminidase release assay. It is filed as functional, cell-based.
The test system of data set [8] is ECV-304. The data set can be described thus: Membrane permeabilization effect on human ECV304 cells at 3 to 6 uM measured every 15 secs for 3 hrs by real time impedance-based plate reader analysis. It is filed as functional, cell-based.

SMILES strings stand for the structures. Activity calls are given as the source filed them. No cut-off for these calls is given here.

As to `CC1(C)[C@@H](O[C@H]2O[C@H](C(=O)O)[C@@H](O)[C@H](O)[C@H]2O[C@@H]2O[C@H](C(=O)O)[C@@H](O)[C@H](O)[C@H]2O)CC[C@]2(C)[C@H]3C(=O)C=C4[C@@H]5C[C@@](C)(C(=O)O)CC[C@]5(C)CC[C@@]4(C)[C@]3(C)CC[C@@H]12` [GLYCYRRHIZIN], the result with ECV-304 [1], in the data set on ECV-304 [2], in the data set on ECV-304 [3], with ECV-304 [5], with ECV-304 [6] and in the data set on ECV-304 [7] was inactive. Also, in the data set on ECV-304 [8], the outcome was inactive. Also, the Activity entry in data set [4] is “Non-toxic”.

The values are drawn from ChEMBL document CHEMBL2346628, “Real-time analysis of membrane permeabilizing effects of oleanane saponins” (Bioorg Med Chem, 2013).
